# Laboratory results as given in patent US8859596B2, “Compounds as cannabinoid receptor ligands” (priority 2008, dated 2014).
# Like-named read-outs stand apart in the source and are kept apart here.
# Assays:
# human CB2 receptors = human CB2 receptors (Homo sapiens (Human), UniProt P34972); experiment: human CB2 radioligand binding assay ([3H]CP 55,940 competition)
# Description: (§1) The CB1 and CB2 radioligand binding assays described herein are utilized to ascertain the affinity of compounds of the present application for binding to CB2 relative to CB1 receptors.
# HEK293 cells stably expressing human CB2 receptors were grown until a confluent monolayer was formed. Briefly, the cells were harvested and homogenized in TE buffer (50 mM Tris-HCl, 1 mM MgCl2, and 1 mM EDTA) using a polytron for 2×10 second bursts in the presence of protease inhibitors, followed by centrifugation at 45,000×g for 20 minutes. The final membrane pellet was re-homogenized in storage buffer (50 mM Tris-HCl, 1 mM MgCl2, and 1 mM EDTA and 10% sucrose) and frozen at −78° C. until used. Saturation binding reactions were initiated by the addition of membrane preparation (protein concentration of 5 μg/well for human CB2) into wells of a deep well plate containing [^3H]CP 55,940 (120 Ci/mmol, a nonselective CB agonist commercially available from Tocris) in assay buffer (50 mM Tris, 2.5 mM EDTA, 5 mM MgCl2, and 0.5 mg/mL fatty acid free BSA, pH 7.4). After 90 min incubation at 30° C., binding reaction was terminated by the addition of 300 μL/well of cold assay buffer followed by rapid vacuum filtration through a UniFilter-96 GF/C filter plates (pre-soaked in 1 mg/mL BSA for 2 hours). The bound activity was counted in a TopCount using Microscint-20. Saturation experiments were conducted with twelve concentrations of [^3H]CP 55,940 ranging from 0.01 to 8 nM. Competition experiments were conducted with 0.5 nM [^3H]CP 55,940 and five concentrations (0.01 nM to 10 μM) of displacing ligands. The addition of 10 μM unlabeled CP 55,940 (Tocris, Ellisville, Mo.) was used to assess nonspecific binding.
# rat CB2 = rat CB2 (Rattus norvegicus (Rat), UniProt Q9QZN9); experiment: rat CB2 radioligand binding assay ([3H]CP 55,940 competition)
# Description: as §1
# HEK293 cells stably expressing rat CB2 receptors were grown until a confluent monolayer was formed. Briefly, the cells were harvested and homogenized in TE buffer (50 mM Tris-HCl, 1 mM MgCl2, and 1 mM EDTA) using a polytron for 2×10 second bursts in the presence of protease inhibitors, followed by centrifugation at 45,000×g for 20 minutes. The final membrane pellet was re-homogenized in storage buffer (50 mM Tris-HCl, 1 mM MgCl2, and 1 mM EDTA and 10% sucrose) and frozen at −78° C. until used. Saturation binding reactions were initiated by the addition of membrane preparation (protein concentration of 20 μg/well for rat CB2) into wells of a deep well plate containing [^3H]CP 55,940 (120 Ci/mmol, a nonselective CB agonist commercially available from Tocris) in assay buffer (50 mM Tris, 2.5 mM EDTA, 5 mM MgCl2, and 0.5 mg/mL fatty acid free BSA, pH 7.4). After 45 min incubation at 30° C., binding reaction was terminated by the addition of 300 μl/well of cold assay buffer followed by rapid vacuum filtration through a UniFilter-96 GF/C filter plates (pre-soaked in 1 mg/mL BSA for 2 hours). The bound activity was counted in a TopCount using Microscint-20. Saturation experiments were conducted with twelve concentrations of [^3H]CP 55,940 ranging from 0.01 to 8 nM. Competition experiments were conducted with 0.5 nM [^3H]CP 55,940 and five concentrations of displacing ligands selected from the range of 0.01 nM to […] addition of 10 μM unlabeled CP 55,940 (Tocris, Ellisville, Mo.) was used to assess nonspecific binding.
# [1] = HEK293 membranes, 0.5 nM [3H]CP 55,940, read-out: human CB2 (Ki)
# [2] = HEK293 membranes, 0.5 nM [3H]CP 55,940, read-out: rat CB2 (Ki)
# Chain of human CB2 receptors (P34972 whole entry): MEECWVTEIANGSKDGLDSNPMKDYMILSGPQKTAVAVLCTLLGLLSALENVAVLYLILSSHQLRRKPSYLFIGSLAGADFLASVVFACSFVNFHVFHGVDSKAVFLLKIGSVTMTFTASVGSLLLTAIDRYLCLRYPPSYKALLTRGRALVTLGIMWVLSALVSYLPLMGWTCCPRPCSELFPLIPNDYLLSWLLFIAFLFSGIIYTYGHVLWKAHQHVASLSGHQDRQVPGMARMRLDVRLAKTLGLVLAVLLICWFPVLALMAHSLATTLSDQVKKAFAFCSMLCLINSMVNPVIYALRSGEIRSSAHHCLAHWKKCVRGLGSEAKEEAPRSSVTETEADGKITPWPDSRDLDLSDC
# Chain of rat CB2 (Q9QZN9 whole entry): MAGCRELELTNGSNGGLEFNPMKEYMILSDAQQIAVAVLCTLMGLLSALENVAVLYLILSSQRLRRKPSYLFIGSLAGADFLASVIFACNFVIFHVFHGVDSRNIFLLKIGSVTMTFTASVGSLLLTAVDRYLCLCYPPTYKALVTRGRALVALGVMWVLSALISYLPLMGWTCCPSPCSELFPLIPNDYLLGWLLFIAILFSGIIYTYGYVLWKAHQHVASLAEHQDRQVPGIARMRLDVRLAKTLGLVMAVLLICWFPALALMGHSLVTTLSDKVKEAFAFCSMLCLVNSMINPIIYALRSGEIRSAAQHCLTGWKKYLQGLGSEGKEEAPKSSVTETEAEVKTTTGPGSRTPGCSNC
SMILES,Ki (human CB2 receptors; [1]) [nM],Ki (rat CB2; [2]) [nM],Ki (human CB2 receptors) [nM],Ki (rat CB2) [nM]
"CC(C)(C)NOc1ccc(C(F)(F)F)cc1C(=O)/N=c1\sc(C(C)(C)C)nn1CCCCF [Example 174, 2-[(tert-butylamino)oxy]-N-[(2Z)-5-tert-butyl-3-(4-fluorobutyl)-1,3,4-thiadiazol-2(3H)-ylidene]-5-(trifluoromethyl)benzamide]",6.2,1.1,,
"CC(C)(C)NOc1ccc(C(F)(F)F)cc1C(=O)/N=c1\sc(C(C)(C)C)nn1CC1CCO1 (stereo not shown) [Example 177, 2-[(tert-butylamino)oxy]-N-[(2Z)-5-tert-butyl-3-(oxetan-2-ylmethyl)-1,3,4-thiadiazol-2(3H)-ylidene]-5-(trifluoromethyl)benzamide]",15,7.3,,
"CCCCn1nc(C(C)(C)C)s/c1=N\C(=O)c1cc(C(F)(F)F)ccc1NNC(=O)c1cccnc1 [Example 197, N-[(2Z)-3-butyl-5-tert-butyl-1,3,4-thiadiazol-2(3H)-ylidene]-2-[2-(pyridin-3-ylcarbonyl)hydrazino]-5-(trifluoromethyl)benzamide]",1.1,0.7,,
"Cn1c(C(C)(C)C)c/c(=N\C(=O)c2cc(C(F)(F)F)ccc2ONC(C)(C)C)n1CC1CC1 [Example 146, 2-[(tert-butylamino)oxy]-N-[(3E)-5-tert-butyl-2-(cyclopropylmethyl)-1-methyl-1,2-dihydro-3H-pyrazol-3-ylidene]-5-(trifluoromethyl)benzamide]",,,54,14
"CCCCn1ccc(C(C)(C)C)c/c1=N\C(=O)c1cc(C(F)(F)F)ccc1ONC(C)(C)C [Example 157, 2-[(tert-butylamino)oxy]-N-[(2E)-1-butyl-4-tert-butylpyridin-2(1H)-ylidene]-5-(trifluoromethyl)benzamide]",128,9.4,,
"CC(C)(C)NOc1ccc(C(F)(F)F)cc1C(=O)/N=c1\sc(C(C)(C)C)nn1CC1CCCCO1 (stereo not shown) [Example 147, 2-[(tert-butylamino)oxy]-N-[(2Z)-5-tert-butyl-3-(tetrahydro-2H-pyran-2-ylmethyl)-1,3,4-thiadiazol-2(3H)-ylidene]-5-(trifluoromethyl)benzamide]",1.7,0.7,,
"CCCCn1nc(C2(C)CC2)s/c1=N\C(=O)c1cc(C(F)(F)F)ccc1ONC(C)(C)C [Example 145, 2-[(tert-butylamino)oxy]-N-[(2Z)-3-butyl-5-(1-methylcyclopropyl)-1,3,4-thiadiazol-2(3H)-ylidene]-5-(trifluoromethyl)benzamide]",16,2.5,,
"CCCCn1/c(=N/C(=O)c2cc(C(F)(F)F)ccc2O/N=C(\C)C(F)(F)F)cc(C(C)(C)C)n1C [Example 194, N-[(3E)-2-butyl-5-tert-butyl-1-methyl-1,2-dihydro-3H-pyrazol-3-ylidene]-5-(trifluoromethyl)-2-({[(1E)-2,2,2-trifluoro-1-methylethylidene]amino}oxy)benzamide]",12,40,,
CCCCn1nc(C(C)(C)C)s/c1=N\C(=O)c1cc(C(F)(F)F)ccc1N(C)N(C)C(=O)OC(C)(C)C [Example 184],279,35,,
"CCCCn1nc(C(C)(C)C)s/c1=N\C(=O)c1cc(C(F)(F)F)ccc1ON=C1CCCCCN1 [Example 189, 2-{[azepan-2-ylideneamino]oxy}-N-[(2Z)-3-butyl-5-tert-butyl-1,3,4-thiadiazol-2(3H)-ylidene]-5-(trifluoromethyl)benzamide]",1.6,4.9,,
"CCCCn1nc(C(C)(C)C)s/c1=N\C(=O)c1cc(C(F)(F)F)ccc1NNC(N)=O [Example 201, 2-[2-({[(2Z)-3-butyl-5-tert-butyl-1,3,4-thiadiazol-2(3H)-ylidene]amino}carbonyl)-4-(trifluoromethyl)phenyl]hydrazinecarboxamide]",47,5.2,,
"COCCn1nc(C(C)(C)C)s/c1=N\C(=O)c1cc(C(F)(F)F)ccc1ONC(C)(C)C [Example 158, 2-[(tert-butylamino)oxy]-N-[(2Z)-5-tert-butyl-3-(2-methoxyethyl)-1,3,4-thiadiazol-2(3H)-ylidene]-5-(trifluoromethyl)benzamide]",39,3.6,,
"CCCCn1nc(C(C)(C)C)s/c1=N\C(=O)c1cc(C(F)(F)F)ccc1O/N=C(\C)C(C)=O [Example 180, N-[(2Z)-3-butyl-5-tert-butyl-1,3,4-thiadiazol-2(3H)-ylidene]-2-({[(1E)-1-methyl-2-oxopropylidene]amino}oxy)-5-(trifluoromethyl)benzamide]",18,11,,
"CCCCn1nc(C(C)(C)C)s/c1=N\C(=O)c1cc(C(F)(F)F)ccc1N/N=C\c1cccc(C)n1 [Example 35, N-[(2Z)-3-butyl-5-tert-butyl-1,3,4-thiadiazol-2(3H)-ylidene]-2-{(2Z)-2-[(6-methylpyridin-2-yl)methylene]hydrazino}-5-(trifluoromethyl)benzamide]",,,185,20
"CCCCn1nc(C(C)(C)C)s/c1=N\C(=O)c1cc(C(F)(F)F)ccc1NN=C(C)C [Example 187, N-[(2Z)-3-butyl-5-tert-butyl-1,3,4-thiadiazol-2(3H)-ylidene]-2-[2-(1-methylethylidene)hydrazino]-5-(trifluoromethyl)benzamide]",247,120,,
"CCCCn1nc(C(C)(C)C)s/c1=N\C(=O)c1cc(C(F)(F)F)ccc1O/N=C(\C)C(C)(C)C [Example 150, N-[(2Z)-3-butyl-5-tert-butyl-1,3,4-thiadiazol-2(3H)-ylidene]-5-(trifluoromethyl)-2-({[(1E)-1,2,2-trimethylpropylidene]amino}oxy)benzamide]",216,283,,
"CCCCn1nc(C(C)(C)C)s/c1=N\C(=O)c1cc(C(F)(F)F)ccc1ON=C(N)C(C)C [Example 175, 2-({[1-amino-2-methylpropylidene]amino}oxy)-N-[(2Z)-3-butyl-5-tert-butyl-1,3,4-thiadiazol-2(3H)-ylidene]-5-(trifluoromethyl)benzamide]",5.3,2.9,,
"Cn1c(C(C)(C)C)c/c(=N\C(=O)c2cc(C(F)(F)F)ccc2ONC(C)(C)C)n1CC1CCC1 [Example 155, 2-[(tert-butylamino)oxy]-N-[(3E)-5-tert-butyl-2-(cyclobutylmethyl)-1-methyl-1,2-dihydro-3H-pyrazol-3-ylidene]-5-(trifluoromethyl)benzamide]",,,27,14
"CCCCn1nc(C(C)(C)C)s/c1=N\C(=O)c1cc(C(F)(F)F)ccc1N(/N=C/c1cccc(C)n1)C(=O)OC(C)(C)C [Example 205, tert-butyl (2E)-1-[2-({[(2Z)-3-butyl-5-tert-butyl-1,3,4-thiadiazol-2(3H)-ylidene]amino}carbonyl)-4-(trifluoromethyl)phenyl]-2-[(6-methylpyridin-2-yl)methylene]hydrazinecarboxylate]",,,44,43
"CCCCn1cc(C(C)(C)C)cc/c1=N\C(=O)c1cc(C(F)(F)F)ccc1ONC(C)(C)C [Example 160, 2-[(tert-butylamino)oxy]-N-[(2E)-1-butyl-5-tert-butylpyridin-2(1H)-ylidene]-5-(trifluoromethyl)benzamide]",88,5.9,,
